The values below come from article PMC10726920 (Cancer Medicine, 2023).

The assay concerns phospho-4EBP1 (direct mTORC1 substrate) in ALL sample. The experiment in a line: Immunoblotting of pretreatment ALL specimen treated ex vivo 48 h with sapanisertib. Format: cell-based, human. Particulars: 5 μM Q‐VD‐OPh. From the text:
FIGURE 2 Effect of MLN0128 concentrations on mTOR‐associated phosphorylation in vitro, ex vivo, and in the context of the present trial. […] (C) Samples harvested from the indicated patients prior to treatment (lanes 1, 4, 6, 8, and 10), on Day 8 prior to therapy (lanes 2, 5, 7, 9, and 11), or at the time of removal from study after 6 weeks (lane 3) were subjected to SDS‐PAGE and blotting for the indicated antigens. Jurkat cells (lane 12) were included in the blot because they were known to be positive for all analytes.[29] The housekeeping protein nucleolin (NCL) served as a loading control.
Cells were isolated from bone marrow or blood samples using Histopaque-1077 (Millipore-Sigma, St. Louis, MO) step gradients. […] Cells for ex vivo drug exposure were resuspended at a concentration of 1 x 10^6 cells/ml in RPMI 1640 medium containing 10% (v/v) heat-inactivated fetal bovine serum, 50 U/ml penicillin G, 50 µg/ml streptomycin, and 1 mM glutamine. […]
On the technique in general: In western blotting, separated proteins are transferred to a membrane and probed.

For the compound `CC(C)n1nc(-c2ccc3oc(N)nc3c2)c2c(N)ncnc21` [sapanisertib], the “concentration diminishing phosphorylation of 4EBP1 without change in total 4EBP1” value lay within 62.5 to 200 nM.
